From US9145415B2, “Nitrogen-containing heterocyclic compound or salt thereof” (FUJIFILM Corporation, priority 2012, dated 2015)
pIC50: −log10 of the molar value. Where two headings read alike, the source gives them in different places.

Legend:
[1] = test system: Molm-13 cells; assay: Leukemia cell proliferation inhibition test (ATPlite), Molm-13; type: cell-based; conditions: Homo sapiens, read-out: MOLM13 cell proliferation inhibition effect
In short: (§1)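 Molm-13 or MV4-11 cells in RPMI with 10% FBS and pen/strep, seeded at 10,000 cells per well, were exposed to serially diluted compound for 72 hours at 37° C, 5% CO2. Total cellular ATP was read by luciferase luminescence. GI50 came from sigmoid fits against the 0.1% DMSO control, in duplicate.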

[2] = biological target: T1, human FLT3 protein (FLT3 (WT)) (Homo sapiens, UniProt P36888); assay: FLT3 inhibition test (FLT3 enzyme inhibition, time-resolved fluorescence of substrate peptide phosphorylation); type: biochemical; conditions: read-out: FLT3 (WT) enzyme inhibition activity
T1 construct: human FLT3 protein (intracellular region, 564 to 993 aa); GST; purchased Carna Biosciences; host or cells: baculovirus expression system
T1 sequence (P36888 564-993): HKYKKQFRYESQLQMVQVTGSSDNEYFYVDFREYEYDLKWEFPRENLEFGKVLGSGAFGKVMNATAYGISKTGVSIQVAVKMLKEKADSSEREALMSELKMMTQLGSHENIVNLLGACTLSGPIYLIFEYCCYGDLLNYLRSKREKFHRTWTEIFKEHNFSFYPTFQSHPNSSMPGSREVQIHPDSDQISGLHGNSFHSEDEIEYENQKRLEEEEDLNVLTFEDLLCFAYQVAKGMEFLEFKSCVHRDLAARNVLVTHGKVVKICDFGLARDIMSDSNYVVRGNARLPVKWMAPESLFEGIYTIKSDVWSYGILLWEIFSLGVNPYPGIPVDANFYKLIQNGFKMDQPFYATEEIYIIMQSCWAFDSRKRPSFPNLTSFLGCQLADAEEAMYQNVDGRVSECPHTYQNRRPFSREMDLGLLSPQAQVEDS
In short: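 Wild-type human FLT3 (1.2 μg) pre-incubated with compound 15 min at 25° C in 100 mM HEPES pH 7.5, 10 mM MgCl2, 25 mM NaCl, 1 mM DTT. Reaction started with substrate peptide and ATP (final 50 μM), run 30 min at 25° C; phosphorylation read by time-resolved fluorescence.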

[3] = test system: MV4-11 cells; assay: Leukemia cell proliferation inhibition test (ATPlite), MV4-11; type: cell-based; conditions: Homo sapiens, read-out: MV4-11 cell proliferation inhibition effect
In short: as §1

[4] = MOLM-13, 72 h, Molm-13, 72 hours culture, ATPlite, GI50 per method
[5] = GST-fused human FLT3 (564 to 993 aa), ATP 50 μM
[6] = MV4-11, 72 h, MV4-11, 72 hours culture, ATPlite, GI50 per method

| SMILES | pIC50 ([1]; MOLM-13, MOLM13 cell) | pIC50 ([2]; FLT3 (WT)) | pIC50 ([3]; MV4-11, MV4-11 cell) | pIC50 [1, 4] | pIC50 [2, 5] | pIC50 [3, 6] |
| --- | --- | --- | --- | --- | --- | --- |
| CCCNc1nc(Nc2cnc3c(cnn3C)c2)ncc1C#CCCCNC(=O)[C@@H]1CCCN1C(=O)/C=C/CN(C)C [Compound 22-43, (S,E)-1-(4-(Dimethylamino)-2-butenoyl)-N-(5-(2-((1-methyl-1H-pyrazolo[3,4-b]pyridin-5-yl)amino)-4-(propylamino)pyrimidin-5-yl)-4-pentyn-1-yl)pyrrolidine-2-carboxamide] | > 8.00 | > 8.00 | > 8.00 |  |  |  |
| CC#CC(=O)N(C)[C@@H](C)C(=O)Nc1cccc(NC(=O)c2cnc(Nc3ccc(C(N)=O)cc3)nc2NCCC)c1 [Compound 3-11] |  |  |  | 7.00 to 8.00 | > 8.00 | > 8.00 |
| C[C@@H](C(=O)N[C@H]1CCC[C@@H](C#Cc2cnc(Nc3ccc(C#N)cc3)nc2NC2CC2)C1)N(C)C(=O)/C=C/CN(C)C [Compound 7-35] |  |  |  | > 8.00 | > 8.00 | > 8.00 |
| CCCNc1nc(NCCc2ccncc2)ncc1C(=O)Nc1ccc(OC)c(NC(=O)CN(C)C(=O)/C=C/CN(C)C)c1 [Compound 1-10] |  |  |  | > 8.00 | > 8.00 | > 8.00 |
| C=CC(=O)NCC(=O)Nc1cccc(NC(=O)c2cnc(Nc3ccc(C#N)cc3)nc2NCCC)c1 [Compound 6-2, N-(3-(2-(acrylylamido)acetamido)phenyl)-2-((4-cyanophenyl)amino)-4-(propylamino)pyrimidine-5-carboxamide] |  |  |  | 6.00 to 7.00 | 7.00 to 8.00 | 7.00 to 8.00 |
| CCCNc1nc(Nc2cnc3[nH]nc(OC)c3c2)ncc1C#CCCCNC(=O)[C@H](C)N(C)C(=O)/C=C/CN(C)C [Compound 22-66] | > 8.00 | > 8.00 | > 8.00 |  |  |  |
| C=CC(=O)N[C@@H](C)C(=O)Nc1cccc(NC(=O)c2cnc(NCCc3ccncc3)nc2NCCC)c1 [Compound 1-1, (S)—N-(3-(2-(acrylylamido)propanamido)phenyl)-4-(propylamino)-2-((2-(pyridin-4-yl)ethyl)amino)pyrimidine-5-carboxamide] |  |  |  | 7.00 to 8.00 | > 8.00 | 7.00 to 8.00 |
| CCCNc1nc(NCCc2ccncc2)ncc1C(=O)Nc1ccc(OC)c(NC(=O)CNC(=O)/C=C/CN(C)C)c1 [Compound 1-9] |  |  |  | 7.00 to 8.00 | > 8.00 | > 8.00 |
| CNc1nc(Nc2ccc(C#N)cc2)ncc1C#C[C@H]1C[C@@H](NC(=O)[C@H](C)N(C)C(=O)/C=C/CN(C)C)C1 [Compound 13-14, (E)-N—((S)-1-(((1S,3R)-3-((2-((4-Cyanophenyl)amino)-4-(methylamino)pyrimidin-5-yl)ethynyl)cyclobutyl)amino)-1-oxopropan-2-yl)-4-(dimethylamino)-N-methyl-2-butenamide] |  |  |  | > 8.00 | > 8.00 | > 8.00 |
| CCCNc1nc(Nc2cnc3ccccc3c2)ncc1C#CCCCNC(=O)[C@H](C)N(C)C(=O)/C=C/CN(C)C [Compound 22-3] | 7.00 to 8.00 | > 8.00 | 7.00 to 8.00 |  |  |  |
| C[C@@H](C(=O)NCCCC#Cc1cnc(Nc2cccc(F)c2)nc1NCCN1CCOCC1)N(C)C(=O)/C=C/CN(C)C [Compound 10-6] |  |  |  | > 8.00 | > 8.00 | > 8.00 |
| CCCNc1nc(Nc2ccc(F)cc2)ncc1C#CCCCNC(=O)CN(C)C(=O)/C=C/CN(C)C [Compound 7-8, (E)-4-(Dimethylamino)-N-(2-((5-(2-((4-fluorophenyl)amino)-4-(propylamino)pyrimidin-5-yl)-4-pentyn-1-yl)amino)-2-oxoethyl)-N-methyl-2-butenamide] |  |  |  | > 8.00 | > 8.00 | > 8.00 |
| C[C@@H](C(=O)NCCCC#Cc1cnc(Nc2ccc(F)nc2)nc1N1CCCC1)N(C)C(=O)/C=C/CN(C)C [Compound 11-8] |  |  |  | 7.00 to 8.00 | > 8.00 | 7.00 to 8.00 |
| COc1ccc(Nc2nc(Nc3cccc(F)c3)ncc2C#CCCCNC(=O)[C@H](C)N(C)C(=O)/C=C/CN(C)C)cn1 [Compound 7-19] |  |  |  | > 8.00 | > 8.00 | > 8.00 |
| CCCNc1nc(Nc2ccc(C(N)=O)cc2)ncc1C(=O)Nc1cccc(NC(=O)[C@H](C)N(C)C(=O)/C=C/CN2CC(O)C2)c1 [Compound 4-5] |  |  |  | > 8.00 | > 8.00 | > 8.00 |
| COc1ccc(Nc2nc(NC3CC3)ncc2C#CCCCNC(=O)[C@H](C)N(C)C(=O)/C=C/CN(C)C)cn1 [Compound 22-24] | 7.00 to 8.00 | 7.00 to 8.00 | 7.00 to 8.00 |  |  |  |
| CNc1nc(Nc2ccnc(OC)c2)ncc1C#CCCCNC(=O)[C@H](C)N(C)C(=O)/C=C/CN(C)C [Compound 9-39] |  |  |  | > 8.00 | > 8.00 | > 8.00 |
| CNc1nc(Nc2ccc(OC)c(F)c2)ncc1C#CCCCNC(=O)[C@@H]1CCCN1C(=O)/C=C/CN(C)C [Compound 21-42] | > 8.00 | > 8.00 | > 8.00 |  |  |  |
| CCCNc1nc(Nc2cccc(F)c2)ncc1C#CCCCNC(=O)[C@@H]1C[C@@H](OC)CN1C(=O)/C=C/CN(C)C [Compound 7-58] |  |  |  | > 8.00 | > 8.00 | > 8.00 |
| COCCCNc1nc(Nc2ccnc(OC)c2)ncc1C#CCCCNC(=O)[C@@H]1C[C@H](O)CN1C(=O)/C=C/CN(C)C [Compound 9-33] |  |  |  | > 8.00 | > 8.00 | > 8.00 |
| CCCNc1nc(Nc2cnc3c(c2)c(C)nn3C)ncc1C#CCCCNC(=O)[C@H](C)N(C)C(=O)/C=C/CN(C)C [Compound 22-28] | > 8.00 | > 8.00 | > 8.00 |  |  |  |
| CCCNc1nc(Nc2cnc3c(c2)c(OC)nn3C)ncc1C#CCCCNC(=O)[C@H](C)N(C)C(=O)/C=C/CN(C)C [Compound 22-29] | > 8.00 | > 8.00 | > 8.00 |  |  |  |
| CCCNc1nc(Nc2cnc(N3CCOCC3)c(F)c2)ncc1C#CCCCNC(=O)[C@H](C)N(C)C(=O)/C=C/CN(C)C [Compound 21-8] |  |  |  | 7.00 to 8.00 | 7.00 to 8.00 | 7.00 to 8.00 |
| CCCNc1nc(Nc2ccc3nn(C)cc3c2)ncc1C#CCCCNC(=O)[C@H](C)N(C)C(=O)/C=C/CN(C)C [Compound 21-7] |  |  |  | > 8.00 | > 8.00 | > 8.00 |
| C[C@@H](C(=O)NCCCC#Cc1cnc(Nc2ccnc(F)c2)nc1N1CCOCC1)N(C)C(=O)/C=C/CN(C)C [Compound 9-11] |  |  |  | > 8.00 | > 8.00 | > 8.00 |
| CC(C)Nc1nc(Nc2ccc(C#N)cc2)ncc1C#C[C@@H]1CCC[C@H](NC(=O)[C@H](C)N(C)C(=O)/C=C/CN(C)C)C1 [Compound 21-31] | > 8.00 | > 8.00 | > 8.00 |  |  |  |
| CCCNc1nc(Nc2ccc(C#N)cc2)ncc1C#CCCCNC(=O)CN(CC(C)C)C(=O)/C=C/CN(C)C [Compound 7-65] |  |  |  | > 8.00 | > 8.00 | > 8.00 |
| CNc1nc(Nc2ccc(C#N)cc2)ncc1C#CCCCNC(=O)CN(C)C(=O)/C=C/CN(C)C [Compound 7-88, (E)-N-(2-((5-(2-((4-Cyanophenyl)amino)-4-(methylamino)pyrimidin-5-yl)-4-pentyn-1-yl)amino)-2-oxoethyl)-4-(dimethylamino)-N-methyl-2-butenamide] |  |  |  | > 8.00 | > 8.00 | > 8.00 |
| CC(C)CCNc1nc(Nc2ccc(C#N)cc2)ncc1C#CCCCNC(=O)[C@H](C)N(C)C(=O)/C=C/CN(C)C [Compound 10-13] |  |  |  | > 8.00 | > 8.00 | > 8.00 |
